Columns and labels:
Assay type in all cases: cell-based
ADRB3 = molecular target: T1, ADRB3 (Homo sapiens, UniProt P13945); test: PRESTO-Tango GPCR screen; conditions: 100 µM
T1 construct: purchased PRESTO-Tango GPCR kit (Roth lab / Addgene)
Method: (§1) The PRESTO-Tango analyses were performed as previously published. Briefly, HTLA cells, a HEK293 cell line that stably expresses β-arrestin-TEV and tTA-Luciferase (a kind gift from Gilad Barnea, Brown University), were plated in 96-well tissue culture plates (Eppendorf) in DMEM containing 10% FBS and 1% Penicillin/Streptomycin. One day after plating (after reaching approximately 90% confluence), 200 ng per well GPCR-Tango plasmids[37] in 20 μL DMEM were individually mixed with 400 ng polyethylenimine (Polysciences) in an equal volume of DMEM and incubated for 20 min at room temperature before adding the transfection mixture to the HTLA cells. 16-24 h after transfection, medium was replaced with 180 μL fresh DMEM containing 1% Penicillin/Streptomycin and 10 mM HEPES and 20 μL of 3 or 3-Homo to reach a final concentration of 100 μM. Supernatants were aspirated 20 h after stimulation and 50 μl per well of Bright-Glo solution (Promega) diluted 20-fold with PBS containing 20 mM HEPES was added into each well. After 15 min incubation at room temperature, luminescence was quantified using a Spectramax i3x microplate reader (Molecular Devices). Activation fold for each sample was calculated by dividing relative luminescence units (RLU) for each condition by RLUs from PBS control. Dose response curves of each chemical were performed in a similar way with varying the ligand concentration from 10^−4 M to 10^−15 M.

SSTR5 = molecular target: T2, SSTR5 (Homo sapiens, UniProt P35346); test: PRESTO-Tango GPCR screen; conditions: 100 µM
T2 construct: purchased PRESTO-Tango GPCR kit (Roth lab / Addgene)
Method: as §1

PTAFR = molecular target: T3, PTAFR (Homo sapiens, UniProt P25105); test: PRESTO-Tango GPCR screen; conditions: 100 µM
T3 construct: purchased PRESTO-Tango GPCR kit (Roth lab / Addgene)
Method: as §1

LTB4R2B = molecular target: T4, LTB4R2B (Homo sapiens, UniProt Q9NPC1); test: PRESTO-Tango GPCR screen; conditions: 100 µM
T4 construct: purchased PRESTO-Tango GPCR kit (Roth lab / Addgene)
Method: as §1

CRHR2 = molecular target: T5, CRHR2 (Homo sapiens, UniProt Q13324); test: PRESTO-Tango GPCR screen; conditions: 100 µM
T5 construct: purchased PRESTO-Tango GPCR kit (Roth lab / Addgene)
Method: as §1

GPR3 = molecular target: T6, GPR3 (Homo sapiens, UniProt P46089); test: PRESTO-Tango GPCR screen; conditions: 100 µM
T6 construct: purchased PRESTO-Tango GPCR kit (Roth lab / Addgene)
T6 sequence (P46089 whole entry): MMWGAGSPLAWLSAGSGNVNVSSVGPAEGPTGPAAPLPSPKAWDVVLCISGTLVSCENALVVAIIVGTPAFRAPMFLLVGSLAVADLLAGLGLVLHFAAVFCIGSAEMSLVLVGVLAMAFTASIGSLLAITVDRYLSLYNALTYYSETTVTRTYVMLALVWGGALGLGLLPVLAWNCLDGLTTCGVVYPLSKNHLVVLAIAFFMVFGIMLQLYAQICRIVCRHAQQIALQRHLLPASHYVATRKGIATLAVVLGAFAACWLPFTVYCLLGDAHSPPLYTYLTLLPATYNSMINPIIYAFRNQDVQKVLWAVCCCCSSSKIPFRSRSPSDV
Method: as §1

LPAR2 = molecular target: T7, LPAR2 (Homo sapiens, UniProt Q9HBW0); test: PRESTO-Tango GPCR screen; conditions: 100 µM
T7 construct: purchased PRESTO-Tango GPCR kit (Roth lab / Addgene)
Method: as §1

GPR37L1 = molecular target: T8, GPR37L1 (Homo sapiens, UniProt O60883); test: PRESTO-Tango GPCR screen; conditions: 100 µM
T8 construct: purchased PRESTO-Tango GPCR kit (Roth lab / Addgene)
Method: as §1

GPR132 = molecular target: T9, GPR132 (Homo sapiens, UniProt Q9UNW8); test: PRESTO-Tango GPCR screen; conditions: 100 µM
T9 construct: purchased PRESTO-Tango GPCR kit (Roth lab / Addgene)
Method: as §1

AVPR2 = molecular target: T10, AVPR2 (Homo sapiens, UniProt P30518); test: PRESTO-Tango GPCR screen; conditions: 100 µM
T10 construct: purchased PRESTO-Tango GPCR kit (Roth lab / Addgene)
Method: as §1

HTR7 = molecular target: T11, HTR7 (Homo sapiens, UniProt P34969); test: PRESTO-Tango GPCR screen; conditions: 100 µM
T11 construct: purchased PRESTO-Tango GPCR kit (Roth lab / Addgene)
Method: as §1

GPR64 = molecular target: T12, GPR64 (Homo sapiens, UniProt Q8IZP9); test: PRESTO-Tango GPCR screen; conditions: 100 µM
T12 construct: purchased PRESTO-Tango GPCR kit (Roth lab / Addgene)
Method: as §1

HTR1E = molecular target: T13, HTR1E (Homo sapiens, UniProt P28566); test: PRESTO-Tango GPCR screen; conditions: 100 µM
T13 construct: purchased PRESTO-Tango GPCR kit (Roth lab / Addgene)
Method: as §1

GHSR = molecular target: T14, GHSR (Homo sapiens, UniProt Q92847); test: PRESTO-Tango GPCR screen; conditions: 100 µM
T14 construct: purchased PRESTO-Tango GPCR kit (Roth lab / Addgene)
Method: as §1

GPR82 = molecular target: T15, GPR82 (Homo sapiens, UniProt Q96P67); test: PRESTO-Tango GPCR screen; conditions: 100 µM
T15 construct: purchased PRESTO-Tango GPCR kit (Roth lab / Addgene)
Method: as §1

GPR151 = molecular target: T16, GPR151 (Homo sapiens, UniProt Q8TDV0); test: PRESTO-Tango GPCR screen; conditions: 100 µM
T16 construct: purchased PRESTO-Tango GPCR kit (Roth lab / Addgene)
Method: as §1

LPAR6 = molecular target: T17, LPAR6 (Homo sapiens, UniProt P43657); test: PRESTO-Tango GPCR screen; conditions: 100 µM
T17 construct: purchased PRESTO-Tango GPCR kit (Roth lab / Addgene)
Method: as §1

HTR2B = molecular target: T18, HTR2B (Homo sapiens, UniProt P41595); test: PRESTO-Tango GPCR screen; conditions: 100 µM
T18 construct: purchased PRESTO-Tango GPCR kit (Roth lab / Addgene)
T18 sequence (P41595 whole entry): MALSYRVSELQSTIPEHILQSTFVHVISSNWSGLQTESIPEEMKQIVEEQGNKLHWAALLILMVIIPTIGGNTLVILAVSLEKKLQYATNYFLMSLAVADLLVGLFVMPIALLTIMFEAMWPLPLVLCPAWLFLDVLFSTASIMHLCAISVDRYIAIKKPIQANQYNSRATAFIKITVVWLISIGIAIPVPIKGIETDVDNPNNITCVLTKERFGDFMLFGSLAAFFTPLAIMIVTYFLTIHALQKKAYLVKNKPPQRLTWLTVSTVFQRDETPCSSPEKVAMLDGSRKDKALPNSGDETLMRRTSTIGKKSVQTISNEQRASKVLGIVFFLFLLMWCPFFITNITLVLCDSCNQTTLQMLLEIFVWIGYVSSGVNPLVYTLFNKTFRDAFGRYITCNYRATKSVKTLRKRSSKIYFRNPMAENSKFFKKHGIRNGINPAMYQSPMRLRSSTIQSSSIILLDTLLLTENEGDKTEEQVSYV
Method: as §1

GPR63 = molecular target: T19, GPR63 (Homo sapiens, UniProt Q9BZJ6); test: PRESTO-Tango GPCR screen; conditions: 100 µM
T19 construct: purchased PRESTO-Tango GPCR kit (Roth lab / Addgene)
T19 sequence (Q9BZJ6 whole entry): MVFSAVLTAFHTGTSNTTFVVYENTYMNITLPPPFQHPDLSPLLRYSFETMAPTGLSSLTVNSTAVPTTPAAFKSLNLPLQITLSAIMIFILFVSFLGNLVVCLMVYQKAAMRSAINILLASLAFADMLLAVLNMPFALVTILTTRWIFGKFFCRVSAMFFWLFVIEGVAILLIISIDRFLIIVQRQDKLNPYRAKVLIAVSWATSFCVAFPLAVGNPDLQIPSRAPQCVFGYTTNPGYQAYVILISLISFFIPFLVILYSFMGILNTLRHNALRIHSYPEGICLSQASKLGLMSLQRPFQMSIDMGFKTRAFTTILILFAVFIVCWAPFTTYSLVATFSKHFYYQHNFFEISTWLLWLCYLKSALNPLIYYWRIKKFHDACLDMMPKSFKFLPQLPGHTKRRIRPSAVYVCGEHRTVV
Method: as §1

GPR75 = molecular target: T20, GPR75 (Homo sapiens, UniProt O95800); test: PRESTO-Tango GPCR screen; conditions: 100 µM
T20 construct: purchased PRESTO-Tango GPCR kit (Roth lab / Addgene)
Method: as §1

BDKBR1 = molecular target: T21, BDKBR1 (Homo sapiens, UniProt P46663); test: PRESTO-Tango GPCR screen; conditions: 100 µM
T21 construct: purchased PRESTO-Tango GPCR kit (Roth lab / Addgene)
T21 sequence (P46663 whole entry): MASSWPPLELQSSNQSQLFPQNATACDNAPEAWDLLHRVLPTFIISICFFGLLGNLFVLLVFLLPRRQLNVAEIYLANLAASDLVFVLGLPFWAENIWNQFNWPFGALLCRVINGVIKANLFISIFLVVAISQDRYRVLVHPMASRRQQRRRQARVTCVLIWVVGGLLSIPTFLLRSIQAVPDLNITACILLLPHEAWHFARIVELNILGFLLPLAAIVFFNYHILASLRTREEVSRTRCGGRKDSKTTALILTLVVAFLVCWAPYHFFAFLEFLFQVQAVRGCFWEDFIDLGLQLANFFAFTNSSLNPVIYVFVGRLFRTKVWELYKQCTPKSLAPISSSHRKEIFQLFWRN
Method: as §1

CCR4 = molecular target: T22, CCR4 (Homo sapiens, UniProt P51679); test: PRESTO-Tango GPCR screen; conditions: 100 µM
T22 construct: purchased PRESTO-Tango GPCR kit (Roth lab / Addgene)
Method: as §1

P2RY13 = molecular target: T23, P2RY13 (Homo sapiens, UniProt Q9BPV8); test: PRESTO-Tango GPCR screen; conditions: 100 µM
T23 construct: purchased PRESTO-Tango GPCR kit (Roth lab / Addgene)
Method: as §1

S1PR3 = molecular target: T24, S1PR3 (Homo sapiens, UniProt Q99500); test: PRESTO-Tango GPCR screen; conditions: 100 µM
T24 construct: purchased PRESTO-Tango GPCR kit (Roth lab / Addgene)
T24 sequence (Q99500 whole entry): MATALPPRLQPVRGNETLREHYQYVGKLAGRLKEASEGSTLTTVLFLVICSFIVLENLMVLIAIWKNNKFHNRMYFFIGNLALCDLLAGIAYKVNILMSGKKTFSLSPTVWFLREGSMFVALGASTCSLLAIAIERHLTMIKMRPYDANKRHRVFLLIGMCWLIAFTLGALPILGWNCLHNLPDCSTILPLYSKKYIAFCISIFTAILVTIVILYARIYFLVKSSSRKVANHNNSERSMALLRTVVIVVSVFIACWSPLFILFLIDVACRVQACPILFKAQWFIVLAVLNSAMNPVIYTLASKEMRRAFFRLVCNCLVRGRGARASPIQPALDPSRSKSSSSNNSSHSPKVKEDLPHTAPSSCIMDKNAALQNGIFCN
Method: as §1

DRD2 = molecular target: T25, DRD2 (Homo sapiens, UniProt P14416); test: PRESTO-Tango GPCR screen; conditions: 100 µM
T25 construct: purchased PRESTO-Tango GPCR kit (Roth lab / Addgene)
Method: as §1

GPR173 = molecular target: T26, GPR173 (Homo sapiens, UniProt Q9NS66); test: PRESTO-Tango GPCR screen; conditions: 100 µM
T26 construct: purchased PRESTO-Tango GPCR kit (Roth lab / Addgene)
T26 sequence (Q9NS66 whole entry): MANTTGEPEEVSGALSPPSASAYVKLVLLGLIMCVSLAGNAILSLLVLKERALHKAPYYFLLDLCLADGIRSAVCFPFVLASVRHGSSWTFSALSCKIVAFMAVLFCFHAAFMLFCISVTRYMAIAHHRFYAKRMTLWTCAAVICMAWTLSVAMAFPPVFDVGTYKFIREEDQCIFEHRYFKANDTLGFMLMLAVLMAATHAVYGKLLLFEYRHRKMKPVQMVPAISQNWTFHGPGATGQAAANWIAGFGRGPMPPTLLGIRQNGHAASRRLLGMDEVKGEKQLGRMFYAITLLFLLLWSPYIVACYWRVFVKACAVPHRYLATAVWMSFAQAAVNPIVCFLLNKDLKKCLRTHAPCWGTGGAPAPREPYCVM
Method: as §1

MCHR1 = molecular target: T27, MCHR1 (Homo sapiens, UniProt Q99705); test: PRESTO-Tango GPCR screen; conditions: 100 µM
T27 construct: purchased PRESTO-Tango GPCR kit (Roth lab / Addgene)
Method: as §1

P2RY2 = molecular target: T28, P2RY2 (Homo sapiens, UniProt P41231); test: PRESTO-Tango GPCR screen; conditions: 100 µM
T28 construct: purchased PRESTO-Tango GPCR kit (Roth lab / Addgene)
T28 sequence (P41231 whole entry): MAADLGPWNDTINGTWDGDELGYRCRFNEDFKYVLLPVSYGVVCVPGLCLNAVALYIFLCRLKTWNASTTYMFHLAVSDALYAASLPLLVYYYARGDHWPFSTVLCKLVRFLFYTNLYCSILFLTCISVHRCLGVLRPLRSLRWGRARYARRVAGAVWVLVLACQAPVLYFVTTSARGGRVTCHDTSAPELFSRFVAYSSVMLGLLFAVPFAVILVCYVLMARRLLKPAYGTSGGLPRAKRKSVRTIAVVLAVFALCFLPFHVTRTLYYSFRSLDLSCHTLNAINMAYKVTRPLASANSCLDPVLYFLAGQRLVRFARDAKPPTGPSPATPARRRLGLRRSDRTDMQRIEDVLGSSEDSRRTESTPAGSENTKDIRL
Method: as §1

MAS1L = molecular target: T29, MAS1L (Homo sapiens, UniProt P35410); test: PRESTO-Tango GPCR screen; conditions: 100 µM
T29 construct: purchased PRESTO-Tango GPCR kit (Roth lab / Addgene)
Method: as §1

LTB4R = molecular target: T30, LTB4R (Homo sapiens, UniProt Q15722); test: PRESTO-Tango GPCR screen; conditions: 100 µM
T30 construct: purchased PRESTO-Tango GPCR kit (Roth lab / Addgene)
Method: as §1

GPRC6A = molecular target: T31, GPRC6A (Homo sapiens, UniProt Q5T6X5); test: PRESTO-Tango GPCR screen; conditions: 100 µM
T31 construct: purchased PRESTO-Tango GPCR kit (Roth lab / Addgene)
T31 sequence (Q5T6X5 19-926): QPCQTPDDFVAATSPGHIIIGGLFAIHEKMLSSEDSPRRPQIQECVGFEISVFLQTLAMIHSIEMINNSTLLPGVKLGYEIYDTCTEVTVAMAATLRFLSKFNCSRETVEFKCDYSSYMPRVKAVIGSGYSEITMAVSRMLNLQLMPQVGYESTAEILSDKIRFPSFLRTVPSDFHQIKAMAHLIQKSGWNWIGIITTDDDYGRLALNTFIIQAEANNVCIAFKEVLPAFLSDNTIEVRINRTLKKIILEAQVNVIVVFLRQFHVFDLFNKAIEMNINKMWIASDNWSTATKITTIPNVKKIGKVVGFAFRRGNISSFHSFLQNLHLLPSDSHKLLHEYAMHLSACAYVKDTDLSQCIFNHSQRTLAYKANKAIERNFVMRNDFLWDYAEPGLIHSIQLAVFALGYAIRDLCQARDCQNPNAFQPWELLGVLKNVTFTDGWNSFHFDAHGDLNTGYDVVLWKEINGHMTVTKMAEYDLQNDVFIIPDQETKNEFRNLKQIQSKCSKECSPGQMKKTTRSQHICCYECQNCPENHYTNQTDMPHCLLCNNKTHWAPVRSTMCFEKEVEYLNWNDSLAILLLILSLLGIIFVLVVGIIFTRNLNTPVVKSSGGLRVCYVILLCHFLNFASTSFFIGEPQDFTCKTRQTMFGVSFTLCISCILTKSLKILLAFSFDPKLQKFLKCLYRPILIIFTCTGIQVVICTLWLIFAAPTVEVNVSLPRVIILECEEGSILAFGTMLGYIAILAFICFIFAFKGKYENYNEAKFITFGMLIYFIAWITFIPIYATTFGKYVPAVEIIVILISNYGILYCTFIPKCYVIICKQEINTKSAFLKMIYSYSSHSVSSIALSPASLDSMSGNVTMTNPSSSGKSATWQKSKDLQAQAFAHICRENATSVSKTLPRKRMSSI
Method: as §1

NMUR2 = molecular target: T32, NMUR2 (Homo sapiens, UniProt Q9GZQ4); test: PRESTO-Tango GPCR screen; conditions: 100 µM
T32 construct: purchased PRESTO-Tango GPCR kit (Roth lab / Addgene)
Method: as §1

GPR162 = molecular target: T33, GPR162 (Homo sapiens, UniProt Q16538); test: PRESTO-Tango GPCR screen; conditions: 100 µM
T33 construct: purchased PRESTO-Tango GPCR kit (Roth lab / Addgene)
T33 sequence (Q16538 whole entry): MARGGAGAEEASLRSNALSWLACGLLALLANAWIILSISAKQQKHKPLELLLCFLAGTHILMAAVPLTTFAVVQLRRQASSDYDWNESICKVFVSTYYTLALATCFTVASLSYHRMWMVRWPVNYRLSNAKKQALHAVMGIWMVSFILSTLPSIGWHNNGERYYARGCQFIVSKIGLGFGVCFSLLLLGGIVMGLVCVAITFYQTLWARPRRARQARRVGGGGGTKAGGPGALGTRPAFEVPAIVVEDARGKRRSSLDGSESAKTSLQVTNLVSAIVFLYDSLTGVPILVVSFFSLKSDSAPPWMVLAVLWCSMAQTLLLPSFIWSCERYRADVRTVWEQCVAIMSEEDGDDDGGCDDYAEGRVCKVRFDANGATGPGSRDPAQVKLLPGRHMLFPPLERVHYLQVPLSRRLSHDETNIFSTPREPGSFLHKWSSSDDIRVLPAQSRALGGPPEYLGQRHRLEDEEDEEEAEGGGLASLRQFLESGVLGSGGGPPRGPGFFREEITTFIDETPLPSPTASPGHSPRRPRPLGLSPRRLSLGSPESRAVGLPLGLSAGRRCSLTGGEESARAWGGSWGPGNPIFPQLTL
Method: as §1

GPR50 = molecular target: T34, GPR50 (Homo sapiens, UniProt Q13585); test: PRESTO-Tango GPCR screen; conditions: 100 µM
T34 construct: purchased PRESTO-Tango GPCR kit (Roth lab / Addgene)
T34 sequence (Q13585 whole entry): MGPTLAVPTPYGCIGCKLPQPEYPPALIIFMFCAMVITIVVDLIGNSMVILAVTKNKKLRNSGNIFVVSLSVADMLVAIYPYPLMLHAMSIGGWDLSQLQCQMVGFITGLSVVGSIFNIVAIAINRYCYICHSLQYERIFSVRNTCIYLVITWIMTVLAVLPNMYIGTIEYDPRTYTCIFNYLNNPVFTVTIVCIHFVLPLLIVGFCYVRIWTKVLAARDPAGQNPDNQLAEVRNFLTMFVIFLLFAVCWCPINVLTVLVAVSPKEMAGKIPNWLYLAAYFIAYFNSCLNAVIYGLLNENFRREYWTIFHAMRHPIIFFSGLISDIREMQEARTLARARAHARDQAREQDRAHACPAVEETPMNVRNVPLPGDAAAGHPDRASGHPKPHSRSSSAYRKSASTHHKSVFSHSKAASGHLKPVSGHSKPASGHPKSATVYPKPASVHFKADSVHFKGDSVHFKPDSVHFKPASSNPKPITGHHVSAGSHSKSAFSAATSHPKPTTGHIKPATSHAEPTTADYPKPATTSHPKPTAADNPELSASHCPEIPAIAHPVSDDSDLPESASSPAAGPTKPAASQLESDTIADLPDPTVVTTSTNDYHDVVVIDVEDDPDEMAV
Method: as §1

[1] = test system: 314-member panel of human G protein-coupled receptors (GPCRs); test: PRESTO-Tango screen of 314-member human GPCR panel; conditions: 100 µM, HTLA cells
Method: as §1, with “Dose response curves of each chemical were performed in a similar way with varying the ligand concentration from 10^−4 M to 10^−15 M.” left out

SMILES | GPCR activation (heatmap value) (ADRB3) | GPCR activation (heatmap value) (SSTR5) | GPCR activation (heatmap value) (PTAFR) | GPCR activation (heatmap value) (LTB4R2B) | GPCR activation (heatmap value) (CRHR2) | GPCR activation (heatmap value) (GPR3) | GPCR activation (heatmap value) (LPAR2) | GPCR activation (heatmap value) (GPR37L1) | GPCR activation (heatmap value) (GPR132) | GPCR activation (heatmap value) (AVPR2) | GPCR activation (heatmap value) (HTR7) | GPCR activation (heatmap value) (GPR64) | GPCR activation (heatmap value) (HTR1E) | GPCR activation (heatmap value) (GHSR) | GPCR activation (heatmap value) (GPR82) | GPCR activation (heatmap value) (GPR151) | GPCR activation (heatmap value) (LPAR6) | GPCR activation (heatmap value) (HTR2B) | GPCR activation (heatmap value) (GPR63) | GPCR activation (heatmap value) (GPR75) | other results
CC(C)Cc1ncc(CCCCNC(=N)N)[nH]c1=O [3-Homo] | -1.912 | -0.02493 | -0.1375 | 0.02731 | -0.3278 | -1.589 | 0.05246 | 0.03037 | 0.4638 | 0.2692 | 0.09912 | 0.7434 | 0.001914 | 0.75 | -0.5831 | 0.4419 | 0.3664 | -0.5052 | 0.374 | 0.5978 | GPCR activation (heatmap value) (BDKBR1): -0.9993; GPCR activation (heatmap value) (CCR4): 0.4296; GPCR activation (heatmap value) (P2RY13): 0.4611; GPCR activation (heatmap value) (S1PR3): -0.09323; GPCR activation (heatmap value) (DRD2): -0.9836; GPCR activation (heatmap value) (GPR173): -0.8728; GPCR activation (heatmap value) (MCHR1): -1.3275; GPCR activation (heatmap value) (P2RY2): -0.0487; GPCR activation (heatmap value) (MAS1L): 0.1505; GPCR activation (heatmap value) (LTB4R): 0.1103; GPCR activation (heatmap value) (GPRC6A): -1.019; GPCR activation (heatmap value) (NMUR2): 0.3619; GPCR activation (heatmap value) (GPR162): -0.5864; GPCR activation (heatmap value) (GPR50): 0.1425; selectivity across the GPCR panel [1]: selective agonists for histamine receptor H4
CC(C)Cc1ncc(CCCNC(=N)N)[nH]c1=O [compound 3] | 0.7966 | -1.082 | -0.05027 | -1.038 | -0.2766 | -0.8156 | -0.4851 | -0.6695 | 0.3578 | -1.811 | -0.07329 | 0.632 | 0.5345 | -0.1187 | 0.0221 | -0.03391 | 0.5638 | -0.6262 | 0.05297 | -1.251 | GPCR activation (heatmap value) (BDKBR1): -0.1783; GPCR activation (heatmap value) (CCR4): -0.299; GPCR activation (heatmap value) (P2RY13): -0.6143; GPCR activation (heatmap value) (S1PR3): -0.834; GPCR activation (heatmap value) (DRD2): 0.05842; GPCR activation (heatmap value) (GPR173): -0.2495; GPCR activation (heatmap value) (MCHR1): -0.2593; GPCR activation (heatmap value) (P2RY2): 0.0313; GPCR activation (heatmap value) (MAS1L): -0.3942; GPCR activation (heatmap value) (LTB4R): -0.07274; GPCR activation (heatmap value) (GPRC6A): -0.9035; GPCR activation (heatmap value) (NMUR2): 0.09545; GPCR activation (heatmap value) (GPR162): 0.329; GPCR activation (heatmap value) (GPR50): 0.1425; selectivity across the GPCR panel [1]: selective agonists for histamine receptor H4
